# In ChEMBL document CHEMBL3108773, “Antihyperglycemic glucosylated coumaroyltyramine derivatives from Teucrium viscidum” (J Nat Prod, 2014):
# Tests used:
# HepG2 [1] = experiment: Cytotoxicity against human HepG2 cells assessed as cell viability up to 30 uM by MTT assay; assay type: cell-based
# [2] = Antihyperglycemic activity in mouse 3T3L1 cells assessed as stimulation of glucose consumption at 2 uM after 36 hrs by glucose oxidase assay in presence of high glucose condition relative to control; assay type: functional, 3T3-L1
# HepG2 [3] = experiment: Antihyperglycemic activity in human HepG2 cells assessed as stimulation of glucose consumption at 2 uM after 36 hrs by glucose oxidase assay in presence of high glucose condition relative to control; assay type: functional
# [4] = Cytotoxicity against mouse 3T3L1 cells assessed as cell viability up to 30 uM by MTT assay; assay type: cell-based; conditions: 3t3-l1
SMILES,Activity (HepG2 [1]),fold change (FC) [2],fold change (FC) (HepG2 [3]),Activity [4]
COc1ccc(/C=C\C(=O)NCCc2ccc(O[C@@H]3O[C@@H](C)[C@H](OC(C)=O)[C@@H](O[C@@H]4O[C@H](CO)[C@@H](O)[C@H](O)[C@H]4O)[C@H]3O[C@@H]3O[C@H](CO)[C@@H](O)[C@H](O)[C@H]3O)cc2)cc1,Non-toxic,2.3,2.2,Non-toxic
COc1ccc(/C=C/C(=O)NCCc2ccc(O[C@@H]3O[C@@H](C)[C@H](OC(C)=O)[C@@H](O[C@@H]4O[C@H](CO)[C@@H](O)[C@H](O)[C@H]4O)[C@H]3O[C@@H]3O[C@H](CO)[C@@H](O)[C@H](O)[C@H]3O)cc2)cc1,Non-toxic,2.1,2.1,Non-toxic
COc1ccc(/C=C/C(=O)NCCc2ccc(O[C@@H]3O[C@@H](C)[C@H](O)[C@@H](O[C@@H]4O[C@H](CO)[C@@H](O)[C@H](O)[C@H]4O)[C@H]3O[C@@H]3O[C@H](CO)[C@@H](O)[C@H](O)[C@H]3O)cc2)cc1,Non-toxic,2.5,2.2,Non-toxic
COc1ccc(/C=C/C(=O)NCCc2ccc(O[C@@H]3O[C@@H](C)[C@H](OC(C)=O)[C@@H](O[C@@H]4O[C@H](COC(C)=O)[C@@H](O)[C@H](O)[C@H]4O)[C@H]3O[C@@H]3O[C@H](COC(C)=O)[C@@H](O)[C@H](O)[C@H]3O)cc2)cc1,Non-toxic,1.6,1.7,Non-toxic
COc1ccc(/C=C/C(=O)NCCc2ccc(O[C@@H]3O[C@@H](C)[C@H](OC(C)=O)[C@@H](O[C@@H]4O[C@H](CO)[C@@H](O)[C@H](O)[C@H]4O)[C@H]3O[C@@H]3O[C@H](COC(C)=O)[C@@H](O)[C@H](O)[C@H]3O)cc2)cc1,Non-toxic,1.6,1.7,Non-toxic
COc1ccc(/C=C\C(=O)NCCc2ccc(O[C@@H]3O[C@@H](C)[C@H](O)[C@@H](O[C@@H]4O[C@H](CO)[C@@H](O)[C@H](O)[C@H]4O)[C@H]3O[C@@H]3O[C@H](CO)[C@@H](O)[C@H](O)[C@H]3O)cc2)cc1,Non-toxic,1.6,1.7,Non-toxic
COc1ccc(/C=C\C(=O)NCCc2ccc(O[C@@H]3O[C@@H](C)[C@H](OC(C)=O)[C@@H](O[C@@H]4O[C@H](CO)[C@@H](O)[C@H](O)[C@H]4O)[C@H]3O[C@@H]3O[C@H](COC(C)=O)[C@@H](O)[C@H](O)[C@H]3O)cc2)cc1,Non-toxic,1.6,1.7,Non-toxic
COc1ccc(/C=C\C(=O)NCCc2ccc(O[C@@H]3O[C@@H](C)[C@H](OC(C)=O)[C@@H](O[C@@H]4O[C@H](COC(C)=O)[C@@H](O)[C@H](O)[C@H]4O)[C@H]3O[C@@H]3O[C@H](COC(C)=O)[C@@H](O)[C@H](O)[C@H]3O)cc2)cc1,Non-toxic,1.6,1.7,Non-toxic
